Laboratory results as given in ChEMBL document CHEMBL1201862, “PubChem BioAssay data set” (2004).
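Values below derive from 48-hour exposures of cells grown in 96-well plates, with endpoints linearly interpolated between the two concentrations bracketing the appropriate inhibition level. Abbreviation: GI50, concentration required for 50% inhibition of growth.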 Active and inactive are the calls of the source. Cut-off read from the data, not from the text of the source: active = GI50 up to about 1.1 µM and inactive = higher.

How the values were obtained:
Test in all cases: inhibition of tumour cell growth, NCI panel, 48 h
786-0 = system: 786-0
DU-145 = system: DU-145
HOP-62 = system: HOP-62
HT-29 = system: HT-29
M14 = system: M14
MDA-MB-231 = system: MDA-MB-231
MDA-MB-435 = system: MDA-MB-435
MDA-N = system: MDA-N
MOLT-4 = system: MOLT-4
Malme-3M = system: Malme-3M
NCI-H23 = system: NCI-H23
OVCAR-5 = system: OVCAR-5
OVCAR-8 = system: OVCAR-8
RPMI-8226 = system: RPMI-8226
RXF 393 = system: RXF 393
SF-539 = system: SF-539
SK-MEL-28 = system: SK-MEL-28
SK-OV-3 = system: SK-OV-3
SNB-19 = system: SNB-19
UO-31 = system: UO-31

Measured: GI50

Cc1ccc(S(=O)(=O)N/N=C2\CCC3(O)CC2(C)CCC2C3CC2(C)C)cc1 (centres undefined)
inactive: 786-0 45.3 µM | DU-145 36.2 µM | HOP-62 92.7 µM | HT-29 34.4 µM | M14 47.9 µM | MDA-MB-231 47.8 µM | MDA-MB-435 40.5 µM | MDA-N 38.5 µM | MOLT-4 85.9 µM | Malme-3M 53.2 µM | NCI-H23 49.5 µM | OVCAR-5 50.6 µM | OVCAR-8 43.8 µM | RPMI-8226 > 100 µM | RXF 393 52.8 µM | SF-539 51.1 µM | SK-MEL-28 31.1 µM | SK-OV-3 37 µM | SNB-19 56.6 µM | UO-31 24.4 µM

CCOC(=O)c1cc(-c2ccc(OC)c(OC)c2)c[nH]1
inactive: 786-0 > 10 µM | DU-145 > 10 µM | HOP-62 > 10 µM | HT-29 > 10 µM | M14 > 10 µM | MDA-MB-231 > 10 µM | MDA-MB-435 > 10 µM | MDA-N > 10 µM | MOLT-4 > 10 µM | Malme-3M > 10 µM | NCI-H23 > 10 µM | OVCAR-5 > 10 µM | OVCAR-8 > 10 µM | RPMI-8226 > 10 µM | RXF 393 > 10 µM | SF-539 > 10 µM | SK-MEL-28 > 10 µM | SK-OV-3 > 10 µM | SNB-19 > 10 µM | UO-31 > 10 µM

O=C1C=CC(=O)c2c1ccc1c3ccccc3n(CCCCCCCCCCCCn3c4ccccc4c4ccc5c(c43)C(=O)C=CC5=O)c21
inactive: 786-0 > 65.8 µM | DU-145 > 100 µM | HOP-62 > 85.5 µM | HT-29 > 100 µM | M14 > 100 µM | MDA-MB-231 > 100 µM | MDA-MB-435 > 100 µM | MDA-N > 100 µM | MOLT-4 49.9 µM | Malme-3M > 100 µM | NCI-H23 > 100 µM | OVCAR-5 > 100 µM | OVCAR-8 > 100 µM | RPMI-8226 > 100 µM | RXF 393 > 100 µM | SF-539 > 100 µM | SK-MEL-28 > 100 µM | SK-OV-3 > 100 µM | SNB-19 > 100 µM | UO-31 > 100 µM

CC1OC(OC2C(O)COC(OC3C(C)OC(OC4C(OC(=O)[C@]56CCC(C)(C)C[C@@H]5C5=CCC7[C@@]8(C)C[C@H](O)[C@H](OC9OC(CO)C(O)C(O)C9O)[C@@](C)(CO)[C@@H]8CC[C@@]7(C)[C@]5(C)CC6)OCC(O)C4O)C(O)C3OC3OCC(O)C(O)C3O)C2O)C(O)C(O)C1O (some centres undefined)
inactive: 786-0 15.5 µM | DU-145 18.4 µM | HOP-62 17.8 µM | M14 11 µM | MDA-MB-231 14.7 µM | MDA-MB-435 21.8 µM | MDA-N 18.8 µM | MOLT-4 20.1 µM | Malme-3M 34.4 µM | NCI-H23 20.8 µM | OVCAR-5 14.4 µM | OVCAR-8 19.5 µM | RPMI-8226 39 µM | RXF 393 15.9 µM | SF-539 18.1 µM | SK-MEL-28 11.2 µM | SK-OV-3 18.6 µM | SNB-19 19.1 µM | UO-31 5.19 µM
